# Results from patent US11285227B2, “Trifunctional constructs with tunablepharmacokinetics useful in imaging and anti-tumor therapies” (CORNELL UNIVERSITY, priority 2017, dated 2022).
# Tests used:
# [1] = molecular target: T1, PSMA on LNCaP cells (Homo sapiens, UniProt Q04609); set-up: host or cells: LNCaP; conditions: binding to PSMA on LNCaP cells; cited from earlier work
# [2] = tested on: LNCaP xenograft tumor-bearing mice; experiment: Biodistribution of 225Ac-macropa-RPS-070 in LNCaP xenograft mice; assay type: in vivo; conditions: 4-96 h; no accumulation in liver, spleen, bone
# Procedure: Cell Culture. […] Cell culture supplies were from Invitrogen unless otherwise noted.
# Inoculation of Mice with Xenografts. All animal studies were approved by the Institutional Animal Care and Use Committee of Weill Cornell Medicine and were undertaken in accordance with the guidelines set forth by the USPHS Policy on Humane Care and Use of Laboratory Animals. Animals were housed under standard conditions in approved facilities with 12 h light/dark cycles. Food and water was provided ad libitum throughout the course of the studies. Hairless male nu/nu mice were purchased from the Jackson Laboratory. For inoculation in mice, LNCaP cells were suspended at 4×10^7 cells/mL in a 1:1 mixture of PBS:Matrigel (BD Biosciences). Each mouse was injected in the left flank with 0.25 mL of the cell suspension. Biodistributions were conducted when tumors were in the range 100-400 mm^3.
# Biodistribution of ^225Ac-macropa-RPS-070 in LNCaP xenograft mice. […] Tissues were weighed and counted on a 2470 Wizard Automatic Gamma Counter (Perkin Elmer). 1% ID/mL samples were counted prior to and following each set of tissue samples to enable decay correction to be undertaken. Counts were corrected for decay and for activity injected, and tissue uptake was expressed as percent injected dose per gram (% ID/g). Standard error measurement was calculated for each data point.
# [3] = molecular target: T1, PSMA on LNCaP cells; experiment: cell-based
# Procedure: The PSMA expressing human prostate cancer cell line, LNCaP, was obtained from the American Type Culture Collection. […] LNCaP cells were maintained in RPMI-1640 medium supplemented with 10% fetal bovine serum (Hyclone), 4 mM L-glutamine, 1 mM sodium pyruvate, 10 mM N-2-hydroxyethylpiperazine-N-2-ethanesulfonic acid (HEPES), 2.5 mg/mL D-glucose, and 50 μg/mL gentamicin in a humidified incubator at 37° C./5% CO2. Cells were removed from flasks for passage or for transfer to 12-well assay plates by incubating them with 0.25% trypsin/ethylenediaminetetraacetic acid (EDTA).
# Briefly, LNCaP cells were plated 72 h prior to the experiment to achieve a density of approximately 5×10^5 cells/well (in triplicate) in RPMI-1640 medium supplemented with 0.25% bovine serum albumin. The cells were incubated for 2 h with 1 nM ^99mTc-MIP-1427 in RPMI-1640 medium containing 0.00125% w/v bovine serum albumin [3] in the presence of 0.001-10,000 nM test compounds. Radioactive incubation media was then removed by pipette and the cells were washed twice using 1 mL ice-cold PBS 1× solution. Cells were harvested from the plates following treatment with 1 mL 1M NaOH and transferred to tubes for radioactive counting using a 2470 Wizard^2 Automatic Gamma Counter (Perkin Elmer). […] IC50 values were determined by fitting the data points to a sigmoidal Hills1 curve in Origin software.
# T1 sequence (Q04609 whole entry): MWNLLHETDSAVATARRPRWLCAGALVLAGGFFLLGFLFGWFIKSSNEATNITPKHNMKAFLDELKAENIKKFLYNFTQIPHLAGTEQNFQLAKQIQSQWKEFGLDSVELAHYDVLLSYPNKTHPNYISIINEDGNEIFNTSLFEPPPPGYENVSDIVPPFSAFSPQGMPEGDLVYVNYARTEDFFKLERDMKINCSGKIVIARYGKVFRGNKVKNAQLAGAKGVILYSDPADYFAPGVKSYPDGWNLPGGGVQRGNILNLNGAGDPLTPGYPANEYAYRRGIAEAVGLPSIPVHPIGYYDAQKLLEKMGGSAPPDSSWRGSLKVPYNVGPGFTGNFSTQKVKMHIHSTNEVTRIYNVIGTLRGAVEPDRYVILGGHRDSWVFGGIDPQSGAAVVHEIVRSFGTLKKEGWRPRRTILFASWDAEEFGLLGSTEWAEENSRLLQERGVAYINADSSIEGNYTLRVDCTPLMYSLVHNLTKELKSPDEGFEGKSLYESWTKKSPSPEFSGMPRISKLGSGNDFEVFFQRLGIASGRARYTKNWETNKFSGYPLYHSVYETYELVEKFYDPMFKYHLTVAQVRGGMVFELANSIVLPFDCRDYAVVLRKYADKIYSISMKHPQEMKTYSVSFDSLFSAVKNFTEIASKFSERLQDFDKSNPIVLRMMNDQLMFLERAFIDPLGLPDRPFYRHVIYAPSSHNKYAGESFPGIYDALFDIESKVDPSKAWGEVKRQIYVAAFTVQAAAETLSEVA
molecule,measurement,setting,value
"^99mTc-((7S,12S,16S)-1-(1-(carboxymethyl)-1H-imidazol-2-yl)-2-((1-(carboxymethyl)-1H-imidazol-2-yl)methyl)-9,14-dioxo-2,8,13,15-tetraazaoctadecane-7,12,16,18-tetracarboxylic acid technetium tricarbonyl complex) [^99mTc-MIP-1427]",Kd,[1],0.64 ± 0.46 nM
"O=C(O)CC[C@H](NC(=O)N[C@@H](CCCCNC(=O)Nc1cccc(-c2cn(CCOCCOCCOCCOCCOCCOCCC(=O)N[C@@H](CCCCNC(=S)Nc3cc(CN4CCOCCOCCN(Cc5cccc(C(=O)O)n5)CCOCCOCC4)nc(C(=O)O)c3)C(=O)N[C@@H](CCCCNC(=O)Cc3ccc(I)cc3)C(=O)O)nn2)c1)C(=O)O)C(=O)O [macropa-RPS-070, (((S)-1-Carboxy-5-(3-(3-(1-((23S,26S)-26-carboxy-23-(4-(3-(2-carboxy-6-((16-((6-carboxypyridin-2-yl)methyl)-1,4,10,13-tetraoxa-7,16-diazacyclooctadecan-7-yl)methyl)pyridin-4-yl)thioureido)butyl)-33-(4-iodophenyl)-21,24,32-trioxo-3,6,9,12,15,18-hexaoxa-22,25,31-triazatritriacontyl)-1H-1,2,3-triazol-4-yl)phenyl)ureido)pentyl)carbamoyl)-L-glutamic acid]",Retention of 225Ac in vivo,[2],can stably retain ^225Ac in vivo over several days
"O=C(O)CC[C@H](NC(=O)N[C@@H](CCCCNC(=O)Nc1cccc(-c2cn(CCOCCOCCOCCC(=O)N[C@@H](CCCCNC(=S)Nc3cc(CN4CCOCCOCCN(Cc5cccc(C(=O)O)n5)CCOCCOCC4)nc(C(=O)O)c3)C(=O)NCCOCCOCCOCCOCCOCCOCCOCCOCCC(=O)N[C@@H](CCCCNC(=O)CCCc3ccc(I)cc3)C(=O)O)nn2)c1)C(=O)O)C(=O)O [RPS-074, (((S)-1-Carboxy-5-(3-(3-(1-((14S,45S)-45-carboxy-14-(4-(3-(2-carboxy-6-((16-((6-carboxypyridin-2-yl)methyl)-1,4,10,13-tetraoxa-7,16-diazacyclooctadecan-7-yl)methyl)pyridin-4-yl)thioureido)butyl)-54-(4-iodophenyl)-12,15,43,51-tetraoxo-3,6,9,19,22,25,28,31,34,37,40-undecaoxa-13,16,44,50-tetraazatetrapentacontyl)-1H-1,2,3-triazol-4-yl)phenyl)ureido)pentyl)carbamoyl)-L-glutamic acid]",IC50,[3],12 ± 3.4 nM
